# Target: T1, PAR4 (Homo sapiens, UniProt Q96RI0)
# T1 construct: expressed in transfected cells; host or cells: HEK293 PAR4 Clone 1.2A (BMS Arctic ID 383940)
# T1 sequence (Q96RI0 18-385): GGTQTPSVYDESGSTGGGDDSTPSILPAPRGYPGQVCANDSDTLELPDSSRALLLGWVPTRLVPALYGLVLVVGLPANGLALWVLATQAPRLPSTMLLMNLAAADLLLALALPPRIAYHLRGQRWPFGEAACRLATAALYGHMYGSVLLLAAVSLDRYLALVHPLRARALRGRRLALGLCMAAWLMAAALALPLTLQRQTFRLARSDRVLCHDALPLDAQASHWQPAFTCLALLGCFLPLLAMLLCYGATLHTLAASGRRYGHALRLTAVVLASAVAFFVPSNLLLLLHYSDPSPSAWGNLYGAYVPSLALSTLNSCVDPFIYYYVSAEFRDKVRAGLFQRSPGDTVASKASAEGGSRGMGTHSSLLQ
# Assay: PAR4 FLIPR assay (antagonism of agonist peptide-induced calcium mobilization)
# Format: cell-based
# Method in brief: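 Antagonism was taken as block of calcium mobilization evoked by the agonist peptide H-Ala-Phe(4-F)-Pro-Gly-Trp-Leu-Val-Lys-Asn-[…]-NH2, added after 30 min room-temperature compound preincubation in dye-loaded PAR4-transfected HEK293 cells (endogenous PAR1). Fluorescence was read on FDSS, with compound addition alone used as the agonist counter-screen; values come from 11-point concentration-response curves.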
smiles,measurement,value
"COc1cnc2c(-c3nc4cc(F)c5c(c4s3)C(C)(C)[C@H](CO)O5)cc(C)cc2n1 (single isomer, unassigned) [Example 206]",IC50,370 nM
"COc1cnc2c(-c3nc4c(C)cc5c(c4s3)OCC(COC(=O)Nc3ccc4c(c3)C(=O)NCC4)O5)cc(C)cc2n1 (centres unmarked) [Example 78, (2-(2-methoxy-7-methylquinoxalin-5-yl)-4-methyl-7,8-dihydro-[1,4]dioxino[2′,3′:3,4]benzo[1,2-d]thiazol-7-yl)methyl (1-oxo-1,2,3,4-tetrahydroisoquinolin-7-yl)carbamate]",IC50,8.6 nM
"COc1cnc2c(-c3nc4c(C)cc5c(c4s3)OCC(COC(=O)Nc3ccc(N4CCCC4)nc3)O5)cc(C)cc2n1 (centres unmarked) [Example 137, (2-(2-methoxy-7-methylquinoxalin-5-yl)-4-methyl-7,8-dihydro-[1,4]dioxino[2′,3′:3,4]benzo[1,2-d]thiazol-7-yl)methyl (6-(pyrrolidin-1-yl)pyridin-3-yl)carbamate]",IC50,6.1 nM
"COc1cnc2c(-c3nc4c(Cl)cc5c(c4s3)OC[C@H](COC(=O)Nc3ccnnc3)O5)cc(C)cc2n1 [Example 34, (R)-(4-chloro-2-(2-methoxy-7-methylquinoxalin-5-yl)-7,8-dihydro-[1,4]dioxino[2′,3′:3,4]benzo[1,2-d]thiazol-7-yl)methyl pyridazin-4-ylcarbamate]",IC50,3.3 nM
"COc1cnc2c(-c3nc4cc(F)c5c(c4s3)C[C@](C)(COC(=O)Nc3cnc(C)nc3)O5)cc(C)cc2n1 [Example 182, (R)-(5-fluoro-2-(2-methoxy-7-methylquinoxalin-5-yl)-7-methyl-7,8-dihydrobenzofuro[5,4-d]thiazol-7-yl)methyl (2-methylpyrimidin-5-yl)carbamate]",IC50,2.6 nM
"COc1cnc2c(-c3nc4c(C)cc5c(c4s3)OCC(COC(=O)Nc3ccc(OCCN(C)C)nc3)O5)cc(C)cc2n1 (centres unmarked) [Example 128, (2-(2-methoxy-7-methylquinoxalin-5-yl)-4-methyl-7,8-dihydro-[1,4]dioxino[2′,3′:3,4]benzo[1,2-d]thiazol-7-yl)methyl (6-(2-(dimethylamino)ethoxy)pyridin-3-yl)carbamate]",IC50,4 nM
"COc1cnc2c(-c3nc4c(C)cc5c(c4s3)OC[C@H](COC(=O)Nc3ccc(C#N)nc3)O5)cc(C)cc2n1 [Example 38, (R)-(2-(2-methoxy-7-methylquinoxalin-5-yl)-4-methyl-7,8-dihydro-[1,4]dioxino[2′,3′:3,4]benzo[1,2-d]thiazol-7-yl)methyl (6-cyanopyridin-3-yl)carbamate]",IC50,1.3 nM
"COc1cnc2c(-c3nc4cc(F)c5c(c4s3)[C@H](C)[C@@H](CO)O5)cc(Cl)cc2c1 [Example 290, ((7S,8S)-2-(6-chloro-3-methoxyquinolin-8-yl)-5-fluoro-8-methyl-7,8-dihydrobenzofuro[5,4-d]thiazol-7-yl)methanol]",IC50,0.8 nM
COc1cnc2c(-c3nc4ccc5c(c4s3)C[C@@H](C(C)O)O5)cc(C)cc2n1 (mixture of isomers) [Example 190],IC50,24 nM
COc1cnc2c(-c3nc4c(C)cc5c(c4s3)OCC(COC(=O)Nc3cncc(C(F)(F)F)c3)O5)cc(C)cc2n1 (centres unmarked) [Example 135],IC50,1.4 nM
"COc1cnc2c(-c3cc4c5c(cc(Cl)c4o3)O[C@@H](COC(=O)Nc3ccc(C)nc3)CO5)cc(C)cc2n1 [Example 7, (R)-(6-chloro-8-(2-methoxy-7-methylquinoxalin-5-yl)-2,3-dihydro-[1,4]dioxino[2,3-e]benzofuran-3-yl)methyl (6-methylpyridin-3-yl)carbamate]",IC50,1 nM
"COc1ccc(NC(=O)OCC2COc3c(cc(C)c4nc(-c5cc(CO)cc6nc(OC)cnc56)sc34)O2)cn1 (centres unmarked) [Example 87, (2-(7-(hydroxymethyl)-2-methoxyquinoxalin-5-yl)-4-methyl-7,8-dihydro-[1,4]dioxino[2′,3′:3,4]benzo[1,2-d]thiazol-7-yl)methyl (6-methoxypyridin-3-yl)carbamate]",IC50,2 nM
"COc1cnc2c(-c3nc4c(Cl)cc5c(c4s3)C[C@@H](COC(=O)Nc3ccc(C)nc3)O5)cc(C)cc2n1 (single isomer, unassigned) [Example 147]",IC50,14 nM
"COc1cnc2c(-c3nc4c(C)cc5c(c4s3)OC[C@H](COC(=O)Nc3cnc(Cl)nc3)O5)cc(C)cc2n1 [Example 59, (R)-(2-(2-methoxy-7-methylquinoxalin-5-yl)-4-methyl-7,8-dihydro-[1,4]dioxino[2′,3′:3,4]benzo[1,2-d]thiazol-7-yl)methyl (2-chloropyrimidin-5-yl)carbamate]",IC50,8.3 nM
"COc1cnc2c(-c3nc4ccc5c(c4s3)OC[C@H](COC(=O)Nc3cnc(C)nc3)O5)cc(CF)cc2c1 [Example 276, (R)-(2-(6-(fluoromethyl)-3-methoxyquinolin-8-yl)-7,8-dihydro-[1,4]dioxino[2′,3′:3,4]benzo[1,2-d]thiazol-7-yl)methyl (2-methylpyrimidin-5-yl)carbamate]",IC50,140 nM
"COc1cnc2c(-c3nc4c(C(O)C(C)(C)C)cc5c(c4s3)OCO5)cc(C)cc2n1 (centres unmarked) [Example 263, 1-(7-(2-methoxy-7-methylquinoxalin-5-yl)-[1,3]dioxolo[4′,5′:3,4]benzo[1,2-d]thiazol-5-yl)-2,2-dimethylpropan-1-ol]",IC50,5.7 nM
"COc1cnc2c(-c3nc4cc(F)c5c(c4s3)C[C@@H](CNC(=O)C(F)(F)F)O5)cc(C)cc2n1 [Example 215, (S)-2,2,2-trifluoro-N-((5-fluoro-2-(2-methoxy-7-methylquinoxalin-5-yl)-7,8-dihydrobenzofuro[5,4-d]thiazol-7-yl)methyl)acetamide]",IC50,2.3 nM
"CCOc1cnc2c(-c3nc4cc(F)c5c(c4s3)C[C@@H](CO)O5)cc(C)cc2n1 [Example 152, (S)-(2-(2-ethoxy-7-methylquinoxalin-5-yl)-5-fluoro-7,8-dihydrobenzofuro[5,4-d]thiazol-7-yl)methanol]",IC50,11 nM
"COc1cnc2c(-c3nc4cc(F)c5c(c4s3)C[C@H](CNC(=O)Oc3ccccc3)O5)cc(C)cc2n1 [Example 220, (R)-phenyl ((5-fluoro-2-(2-methoxy-7-methylquinoxalin-5-yl)-7,8-dihydrobenzofuro[5,4-d]thiazol-7-yl)methyl)carbamate]",IC50,38 nM
"COc1cnc2c(-c3nc4c(Cl)cc5c(c4s3)OC[C@H](COC(=O)Nc3ccc(F)nc3)O5)cc(C)cc2n1 [Example 29, (R)-(4-chloro-2-(2-methoxy-7-methylquinoxalin-5-yl)-7,8-dihydro-[1,4]dioxino[2′,3′:3,4]benzo[1,2-d]thiazol-7-yl)methyl (6-fluoropyridin-3-yl)carbamate]",IC50,2.9 nM
"COc1cnc2c(-c3nc4ccc5c(c4s3)OC[C@H](COC(=O)Nc3cncc(C#N)c3)O5)cc(C)cc2n1 [Example 113, (R)-(2-(2-methoxy-7-methylquinoxalin-5-yl)-7,8-dihydro-[1,4]dioxino[2′,3′:3,4]benzo[1,2-d]thiazol-7-yl)methyl (5-cyanopyridin-3-yl)carbamate]",IC50,1.9 nM
"COc1cnc2c(-c3nc4cc(F)c5c(c4s3)CC(C)(CO)O5)cc(C)cc2n1 (centres unmarked) [Example 167, (5-fluoro-2-(2-methoxy-7-methylquinoxalin-5-yl)-7-methyl-7,8-dihydrobenzofuro[5,4-d]thiazol-7-yl)methanol]",IC50,3.1 nM
"COc1cnc2c(-c3nc4c(F)cc5c(c4s3)OC[C@H](COC(=O)Nc3cccc(C#N)c3)O5)cc(C)cc2n1 [Example 72, (R)-(4-fluoro-2-(2-methoxy-7-methylquinoxalin-5-yl)-7,8-dihydro-[1,4]dioxino[2′,3′:3,4]benzo[1,2-d]thiazol-7-yl)methyl (3-cyanophenyl)carbamate]",IC50,7.7 nM
"COc1cnc2c(-c3nc4ccc5c(c4s3)C[C@@H](CNC(=O)OCc3cccnc3)O5)cc(C)cc2n1 [Example 232, (S)-pyridin-3-ylmethyl ((2-(2-methoxy-7-methylquinoxalin-5-yl)-7,8-dihydrobenzofuro[5,4-d]thiazol-7-yl)methy 1)carbamate]",IC50,3.3 nM
"COc1cnc2c(-c3nc4c(C)cc5c(c4s3)OCC(COC(=O)Nc3cnc(F)c(C)c3)O5)cc(C)cc2n1 (centres unmarked) [Example 122, (2-(2-methoxy-7-methylquinoxalin-5-yl)-4-methyl-7,8-dihydro-[1,4]dioxino[2′,3′:3,4]benzo [1,2-d]thiazol-7-yl)methyl (6-fluoro-5-methylpyridin-3-yl)carbamate]",IC50,2.5 nM
"COc1ccc(NC(=O)OC[C@H]2COc3c(cc(C)c4nc(-c5cc(C)cc6nc(OC)cnc56)sc34)O2)cn1 (single isomer, unassigned) [Example 4]",IC50,0.8 nM
"COc1cnc2c(-c3nc4c(C)cc5c(c4s3)OCC(COC(=O)Nc3ccc(-c4ccccc4)nc3)O5)cc(C)cc2n1 (centres unmarked) [Example 125, (2-(2-methoxy-7-methylquinoxalin-5-yl)-4-methyl-7,8-dihydro-[1,4]dioxino[2′,3′:3,4]benzo[1,2-d]thiazol-7-yl)methyl (6-phenylpyridin-3-yl)carbamate]",IC50,35 nM
"COc1cnc2c(-c3nc4ccc5c(c4s3)C[C@@H](CNC(=O)OC(C)(C)C)O5)cc(C)cc2n1 [Example 244, (S)-tert-butyl ((2-(2-methoxy-7-methylquinoxalin-5-yl)-7,8-dihydrobenzofuro[5,4-d]thiazol-7-yl)methyl)carbamate]",IC50,100 nM
"CCOC(=O)NC[C@@H]1Cc2c(c(F)cc3nc(-c4cc(C)cc5nc(OC)cnc45)sc23)O1 [Example 260, (S)-ethyl ((5-fluoro-2-(2-methoxy-7-methylquinoxalin-5-yl)-7,8-dihydrobenzofuro[5,4-d]thiazol-7-yl)methyl)carbamate]",IC50,1 nM

# Source: US11932658B2 (BRISTOL-MYERS SQUIBB COMPANY, priority 2016, dated 2024)
